Experimental data from PubChem BioAssay AID588665 (The Scripps Research Institute Molecular Screening Center, 2011).
Calls of active or inactive are those of the source.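 The calls were made as follows: active = EGR1 protein level in colon cancer cells shifted at least 30% from solvent-only cells, up or down; inactive = shift under 30% either way.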

biological target: Early growth response protein 1 (Homo sapiens) (UniProt P18146); assay: EGR1 protein level change in SW620 cells, late-stage follow-up, counter-screen for KLF5 inhibitor project, cell-based, SW620 colorectal carcinoma, chemiluminescent western blot (AID 588665); conditions: 24 h, at 10 µM, hits give high values
Sequence (P18146 whole entry, looked up): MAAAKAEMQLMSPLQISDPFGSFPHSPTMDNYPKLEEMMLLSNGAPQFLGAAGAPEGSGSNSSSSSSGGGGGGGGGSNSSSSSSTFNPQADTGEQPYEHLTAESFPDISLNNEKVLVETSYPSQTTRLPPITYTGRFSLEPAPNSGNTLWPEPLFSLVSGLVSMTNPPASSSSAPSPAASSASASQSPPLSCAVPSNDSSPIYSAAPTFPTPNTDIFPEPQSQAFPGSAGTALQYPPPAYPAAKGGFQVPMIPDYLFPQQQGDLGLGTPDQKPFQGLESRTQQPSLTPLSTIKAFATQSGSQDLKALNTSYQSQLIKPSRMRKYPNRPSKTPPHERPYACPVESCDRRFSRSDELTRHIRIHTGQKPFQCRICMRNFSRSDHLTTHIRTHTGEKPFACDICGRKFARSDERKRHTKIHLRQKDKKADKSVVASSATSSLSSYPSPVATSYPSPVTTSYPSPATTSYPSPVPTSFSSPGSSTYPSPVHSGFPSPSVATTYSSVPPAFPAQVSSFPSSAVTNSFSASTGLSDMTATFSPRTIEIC

inhibition	SMILES
37%	CN(C(=O)CNC(=O)/C=C/c1cccc(Cl)c1)C1CCS(=O)(=O)CC1
-24.8% (inactive)	CN(C(=O)CNC(=O)/C=C/c1cccc(Cl)c1)C1CCS(=O)(=O)C1 (stereo not drawn)
-14.8% (inactive)	CN(C(=O)COC(=O)/C=C/c1cccc([N+](=O)[O-])c1)C1CCS(=O)(=O)C1 (stereo not drawn)
